Results published in patent US20220162238A1, “FATTY ACID COMPOSITION AND APPLICATION THEREOF” (SICHUAN GOWELL PHARMACEUTICAL CO., LTD., priority 2019, published 2022).
Marks after values point to notes of the source that are not given here.

Experiments:
[1] = tested on: TNBS-induced rat IBD model; experiment: TNBS-induced rat IBD model (Example 15); format: in vivo, SD rats
Method: (1) Normal control group (control group): 0.5 wt % sodium carboxymethyl cellulose (CMC-Na) was administered intragastrically.
(§1) (2) IBD model group (model group): 0.5 wt % sodium carboxymethyl cellulose was administered intragastrically.
(3) Positive drug sulfasalazine group (SASP group): sulfasalazine enteric-coated tablets, dosage: 600 mg/kg, prepared with 0.5% sodium carboxymethyl cellulose; administered intragastrically once a day.
3. Experimental method: After being fasted but water allowed for about 24 hours, rats in each group were anesthetized by intraperitoneal injection of 3% sodium pentobarbital solution, and a plastic tube with a diameter of 2 mm and a length of about 12 cm was gently inserted into the rat body via the anus for about 8 cm deep. The ethanol solution containing TNBS was slowly injected with the dose of TNBS 75 mg/kg and the administration volume of 3 mL/kg body weight, and then about 0.1 mL of air was injected to discharge the medicine remained in the plastic tube into intestine. After the administration, the plastic tube was slowly pulled out, the anus was pinched with hand, and the tail of the rat was lifted and kept upside down for about 30 s, so that the modeling agent can fully penetrate into the intestinal cavity of the rat. The normal control group was injected with the same amount of normal saline, Based on the body weight thereof, 75 TNBS modeled rats were randomly divided into model group, positive drug group (sulfasalazine 600 mg/kg body weight), test groups 1 to 3, 15 rats/group, and a normal control group was set up, in which 15 rats were included. On the second day after modeling, the corresponding test samples were administered intragastrically. The normal control group and the model group were administered with 0.5 wt % CMC-Na once a day for 5 consecutive days. DAI activity score was performed on days 1 and 3 of administration and 24 hours after the last administration. Intestinal mucosal damage was observed 24 hours after the last administration for CMDI scoring. The colon tissue was taken for histopathological examination.

[2] = tested on: IBD mouse model with DSS; experiment: DSS-induced IBD mouse model (Example 14); format: in vivo, C57BL/6J mice; conditions: 500 mg/kg intragastrically once a day; 6 days of DSS modeling
Method: (§2) (1) Normal control group (control group): 0.5 wt % sodium carboxymethyl cellulose was administered intragastrically.
as §1
(3) Positive drug sulfasalazine group (SASP group): sulfasalazine enteric-coated tablets; dosage: 500 mg/kg, prepared with 0.5 wt % sodium carboxymethyl cellulose; stored at 4° C. and administered intragastrically once a day.
The mice in the model group and the administration groups were constructed as an IBD mouse model with DSS (MP, CA9011-18-1, US, keeping away from light) by entrusting to the Institute of Materia Medica, Chinese Academy of Medical Sciences. The mice in the normal control group were not treated. The normal control group and model group were administered with 0.5 wt % sodium carboxymethyl cellulose intragastrically, once a day. The SASP group and the test group were administered intragastrically according to the above experimental scheme, once a day. […] The animals in each group were sacrificed, and each evaluation indicator of colitis (see the section of Experiment results) was tested, and the anti-IBD pharmacodynamic activity of each test sample was evaluated comprehensively.

[3] = tested on: DSS-induced IBD mouse model; experiment: DSS-induced IBD mouse model (Example 10); format: in vivo, C57BL/6J mice; conditions: 500 mg/kg intragastrically once a day
Method: 1. Animals: C57BL/6J mice, male (18-20 g); 10 mice per group; purchased from Beijing Huafukang Biotechnology Co., Ltd.; license number: SCXK (Beijing) 2014-0004
as §2
(2) IBC model group (model group): 0.5 wt % sodium carboxymethyl cellulose was administered intragastrically.
(3) Positive drug sulfasalazine group (SASP group): Shanghai Sinepharm Factory Co., Ltd. (batch number: 036151102); dosage: 500 mg/kg, prepared with 0.5 wt % sodium carboxymethyl cellulose, stored at 4° C., administered intragastrically once a day.
(4) Test group: the fatty acid compositions of Examples 1 to 9, dosage: 500 mg/kg, prepared with 0.5 wt % sodium carboxymethyl cellulose, stored at 4° C., administered intragastrically once a day.
For the convenience of experimental operation, two experiments were conducted. The fatty acid compositions of Examples 1 to 5 were used for the first experiment; the fatty acid compositions of Examples 6 to 9 were used for the second experiment. Both experiments were operated according to the following methods. C57BL/6J mice were adaptively fed in an SPF animal room (laboratory animal license number: SYXK (Beijing) 2014-0023) for one week, and then randomly grouped. The mice in the model group and the administration groups were constructed as an IBC mouse model with DSS (MP, CA9011-18-1, US) by entrusting to the Institute of Materia Medica, Chinese Academy of Medical Sciences. The mice in the normal control group were not treated. The normal control group (control group) and model group (model group) were administered with 0.5 wt % sodium carboxymethyl cellulose intragastrically, once a day, with an administration volume of 10 mL/kg. The SASP group and the test group were administered intragastrically according to the above experimental scheme, once a day. […] The animals in each group were sacrificed, and each evaluation indicator of colitis was tested (see the section of Experiment results), and the anti-IBD pharmacodynamic activity of each test sample was evaluated comprehensively.
The DAI scoring criteria were as follows:
The histopathology scoring criteria table was as follows: […]

[4] = tested on: OXZ-induced mouse IBD model; experiment: OXZ-induced mouse IBD model (Example 16); format: in vivo, Balb/c mice; conditions: 500 mg/kg intragastrically once a day, 6 days
Method: 1. Animals: Balb/c mice, male (20-22 g); 10 mice per group.
as §2, §1
(3) Positive drug sulfasalazine group (SASP group): Dosage: 500 mg/kg, prepared with 0.5 wt % sodium carboxymethyl cellulose; stored at 4° C. and administered intragastrically once a day.
Balb/c mice were adaptively fed in an SPF animal room for one week and then grouped randomly. The mice in the model group and the administration groups were constructed as an IBD mouse model with OXZ by entrusting to the Institute of Materia Medica, Chinese Academy of Medical Sciences. Then, the administration was performed for 6 consecutive days; the normal control group was not treated. The normal control group and the model group were intragastrically administered with 0.5 wt % sodium carboxymethylcellulose, once a day. SASP group and test groups 1 to 2 were administrated intragastrically according to the above experimental scheme, once a day. Animals in each group were sacrificed on day 6 of modeling, and various indicators related to colitis were tested (see the section of Experimental results).

[5] = SASP 600 mg/kg, Example 4 at 150, 300 and 600 mg/kg

## O=C(O)c1cc(/N=N/c2ccc(S(=O)(=O)Nc3ccccn3)cc2)ccc1O [Positive drug, sulfasalazine]
[1]; 600 mg/kg, model group 6 cases of 15
  histopathological examination: cases with histological changes of the colon: 5 cases of 15 cases
[1]; [5]
  degree of colon histological lesions vs. model group: significantly reduced compared with the model group
  symptoms of sparse stools and bloody stools during the administration period: alleviated until disappeared
[1]; d6, 600 mg/kg intragastrically once a day for 5 days, p<0.05
  DAI score value: lower
[1]; d6, 600 mg/kg intragastrically once a day, p<0.05
  CMDI score value: lower
[2]
  DAI comprehensive index inhibition rate (%): 38.7^# %
[3]; first experiment
  anti-IBD activity / colon tissue damage (in words): effectively improve the colon tissue damage
  disease comprehensive index DAI score vs. model group (in words): reduce the disease comprehensive index DAI score of the experimental animal significantly
[3]; first experiment, 7 days of DSS modeling
  DAI comprehensive index inhibition rate (%): 23.08^# %
[3]; first experiment, 7 days of DSS modeling, lower is closer to normal
  histopathological score: 7.25 ± 2.14
[3]; second experiment
  anti-IBD activity / colon tissue damage (in words): slightly improve the colon tissue damage
[4]
  DAI composite index inhibition rate (%): 50%
  histopathological score: 4.38 ± 0.42
